Experimental data reported in patent publication US9307761B2, “Microbial composition” (Rohm and Haas Company, priority 2011, dated 2016).
Like-named read-outs stand apart in the source and are kept apart here.

Assays:
Format in all cases: cell-based
[1] = test system: Escherichia coli (E. coli—ATCC #10536); assay: Automated assessment of efficacy in model surfactant medium (2.85% sodium cocoyl glycinate and 1.85% sodium lauroamphoacetate), 15 seconds exposure, delta OD450/OD590; conditions: for No. of replicates showing growth (out of 4) / Δ OD 450 nm = OD450 (time = 16 hours) − OD450 (time zero), Mean / Δ OD 590 nm OD590 (time = 16 hours) − OD590 (time zero), Mean: model surfactant solution, 15 s exposure; for MBC: Escherichia coli, ATCC10536, 15 s, in 2.85% sodium cocoyl glycinate + 1.85% sodium lauroamphoacetate solution at pH 10, E. coli, read-out: MBC (minimum biocidal concentration)
Protocol: Micobiocidal Activity of Actives as Per the Invention in a Model Surfactant Medium Test Methodology for Automated Assessment of Efficacy in Surfactant Base
Solutions were prepared such that the concentrations of the surfactant components and test actives were 1.1×the final desired concentration in order to allow for dilution with the bacterial inoculum in the test. The solutions were manually adjusted to […] by dropwise addition of sodium hydroxide solution, as measured with a pH meter at ambient temperature.
Tests were conducted using standard microtiter plate assays using an automated liquid handling system, 270 μl of the surfactant test solution was pipetted into each well of the microtitre plate and 30 μl of the bacterial suspension was then added. After exactly 15 seconds of bacterial exposure, a 30 μl volume of bacterial cells was withdrawn and transferred to 270 μl of D/E quench solution. After 5 minutes in the D/E quench, the optical density (OD) was measured for each plate in turn at two specific wavelengths (450 nm and 590 nm). These provide a dual check of antimicrobial activity, as the OD450 reading is specific for the yellow colour of D/E quench when bacterial growth is observed, whereas OD590 is specific for the initial purple colour of the D/E quench which is retained if no bacterial growth is observed. After the time zero OD measurements, plates were then incubated at 37° C. overnight (16 hours) before repeating the OD measurements. Delta OD values were calculated by subtracting […]. Bacterial growth is observed as art increase in OD450 and a decrease in ΔOD590. To identify antibacterially efficacious systems (those preventing appreciable bacterial growth after incubation), the following threshold changes in OD readings have been adopted: if (1). OD450 increases by less than 0.2 absorbance unit on incubation and (2). OD590 decreases by less than 0.35 unit on incubation. Conversely, where OD450 increases by more than 0.2 AU and OD590 decreases by more than 0.35 unit after incubation, corresponding to a colour shift from purple to yellow, the test system allows bacterial growth and is not deemed efficacious, four replicate measurements in the same plate have been made for each test system. The number of replicate wells showing either bacterial growth or no growth is also readily assessed by eye by following the colour change.
Dose responses for individual components and binary mixtures of actives at a fixed concentration ratio were generated by sequential dilution of liquors with further surfactant solution to obtain a series of endpoints.
In some selected cases, the combinations were also tested at the weight ratio 1:1.

[2] = test system: Escherichia coli (10536 strain); assay: 15 seconds contact kill assay of actives in water, mean bacterial survival NMBS; conditions: for NMBS: alone, 15 seconds contact
[3] = test system: Escherichia coli (E. coli—ATCC #10536); assay: Synergy tests: high resolution MBC microtiter plate assay, 15 seconds contact, phosphate buffer containing […] dipropylene glycol; conditions: for MBC of the component acting alone (QA or QB): complete kill in 15 seconds
Description: The concentrations and ratios may also vary under different test conditions or with different test methods.
One measure of synergy is the industrially accepted method described by Kull, F. C.; Eisman, P. C.; Sylwestrowicz, H. D. and Mayer, R. L., in Applied Microbiology 9:538-541 (1961), using the ratio determined by the formula: Qa/QA+Qb/QB=Synergy Index (“SI”) wherein: • QA=concentration of compound A (first component) in percent, acting alone, which produced an end point (MBC of Compound A). • Qa=concentration of compound A in percent, in the mixture, which produced an end point. • QB=concentration of compound B (second component) in percent, acting alone, which produced an end point (MBC of Compound B). • Qb=concentration of compound B in percent, in the mixture, which produced an end point.
When the sum of Qa/QA and Qb/QB is greater than one, antagonism is indicated. […] The lower the SI, the greater is the synergy shown by that particular mixture. The minimum biocidal concentration (MBC) of a microbicide is the lowest concentration tested under a specific set of conditions that provides complete kill of the tested microorganisms.
Synergy tests were conducted using standard microtiter plate assays with phosphate buffer containing 3.5% dipropylene glycol (DPG). In this method, a wide range of combinations of chemicals was tested by conducting high resolution MBC assays of Component (A) in the presence of various concentrations of Component (B). High resolution MBCs were determined by adding varying amounts of microbicide to one column of a microtiter plate and doing subsequent […] dilutions using an automated liquid handling system to obtain a series of closely spaced endpoints. The MBC plate was inoculated one column at a time with the test microorganism. An aliquot of the inoculated well was transferred at 15 seconds to a plate containing a neutralizing agent (D/E Neutralizing Broth), mixed and held for 5 minutes before being transferred to a growth plate containing trypticase soy broth (TSB). The TSB plate was incubated at 37° C. and read for the presence/absence of growth at 24 hours. The lowest level tested that provided complete kill (as evidenced by no growth in the microtitre plate) of the test organisms in 15 seconds is the minimum biocidal concentration (MBC).
The synergy of the combinations of the present invention was determined against a bacterium, Escherichia coli (E. coli—ATCC #10536), at a concentration of approximately 1×10^8 bacteria, per mL. This microorganism is representative of natural contaminants in many consumer and industrial applications.

[4] = single active alone at 0.1% w/v
[5] = single active alone at 0.2% w/v
[6] = E. coli 10536, at Qa and Qb, <1 synergy, 1 additivity, >1 antagonism
[7] = single active alone at 0.3% w/v

Which results are given for `CCCCc1ccc(O)cc1` [4-butylphenol]?
No. of replicates showing growth (out of 4) [1, 4]: 4; Δ OD 450 nm = OD450 (time = 16 hours) − OD450 (time zero), Mean [1, 4]: −0.61; Δ OD 590 nm OD590 (time = 16 hours) − OD590 (time zero), Mean [1, 4]: 0.53; No. of replicates showing growth (out of 4) [1, 5]: 4; Δ OD 450 nm = OD450 (time = 16 hours) − OD450 (time zero), Mean [1, 5]: −0.54; Δ OD 590 nm OD590 (time = 16 hours) − OD590 (time zero), Mean [1, 5]: 0.58; No. of replicates showing growth (out of 4) ([1]; single active alone at […] w/v): 4; Δ OD 450 nm = OD450 (time = 16 hours) − OD450 (time zero), Mean ([1]; single active alone at […] w/v): −0.58; Δ OD 590 nm OD590 (time = 16 hours) − OD590 (time zero), Mean ([1]; single active alone at […] w/v): 0.54

What does the source list for `Cc1cc(O)ccc1C(C)C` [4-isopropyl-3-methylphenol]?
No. of replicates showing growth (out of 4) ([1]; single active alone at […] w/v): 4; Δ OD 450 nm = OD450 (time = 16 hours) − OD450 (time zero), Mean ([1]; single active alone at […] w/v): −1.53; Δ OD 590 nm OD590 (time = 16 hours) − OD590 (time zero), Mean ([1]; single active alone at […] w/v): 0.23

`CCCCc1ccc(O)cc1` [4-n-butyl phenol] was tested. Which “MBC of phenolic compound” value ([2]; phenolic compound alone, complete bacterial kill against E. coli) did it give?
The value was 0.25 % (w/v).

`CCCCc1ccc(O)cc1` [4-n-butylphenol] was tested. Which “MBC of the component acting alone (QA or QB)” value ([3]; E. coli 10536) did it give?
Its value is 0.2 weight %.

And the NMBS ([2]; 0.0125% w/v, E. coli)?
Its NMBS is 7.85 log CFU/ml.

And the “MBC (minimum biocidal concentration)” value ([2]; E. coli, in water, component alone)?
Its value is 0.25 % w/v.

What about the NMBS ([2]; […] w/v, E. coli) of the same molecule?
Its NMBS is 0 log CFU/ml.

What about the MBC [1] of the same molecule?
Its MBC is over 2000 µg/mL.

Which “SI (Synergy Index = Qa/QA + Qb/QB)” value [3, 6] does the source give for `CCCc1ccc(O)cc1` [4-propylphenol] here?
Its value is 1.00.

And the “No. of replicates showing growth (out of 4)” value [1, 4]?
Its value is 4.

What about the “Δ OD 450 nm = OD450 (time = 16 hours) − OD450 (time zero), Mean” value (“Δ OD 450 nm = OD450” below) [1, 4] of the same molecule?
Its value is −1.59.

What about the “Δ OD 590 nm OD590 (time = 16 hours) − OD590 (time zero), Mean” value (from here on “Δ OD 590 nm OD590”) [1, 4] of the same molecule?
Its value is 0.34.

What about the “No. of replicates showing growth (out of 4)” value [1, 5] of the same molecule?
Its value is 4.

What about the “No. of replicates showing growth (out of 4)” value ([1]; single active alone at […] w/v) of the same molecule?
The value was 4.

For `CCC(C)c1ccc(O)cc1` (stereo not drawn) [4-sec-butylphenol], which “SI (Synergy Index = Qa/QA + Qb/QB)” value [3, 6] is on record?
The value was 1.00.

Which results are given for `Cc1ccc(C(C)C)cc1O` [5-isopropyl-2-methylphenol]?
SI (Synergy Index = Qa/QA + Qb/QB) [3]: 1.00; No. of replicates showing growth (out of 4) [1, 4]: 4; Δ OD 450 nm = OD450 (time = 16 hours) − OD450 (time zero), Mean [1, 4]: −0.52; Δ OD 590 nm OD590 (time = 16 hours) − OD590 (time zero), Mean [1, 4]: 0.62; No. of replicates showing growth (out of 4) [1, 5]: 4; Δ OD 450 nm = OD450 (time = 16 hours) − OD450 (time zero), Mean [1, 5]: −0.52; Δ OD 590 nm OD590 (time = 16 hours) − OD590 (time zero), Mean [1, 5]: 0.62; No. of replicates showing growth (out of 4) ([1]; single active alone at […] w/v): 4

How did the “SI (Synergy Index = Qa/QA + Qb/QB)” value [3, 6] turn out when `C/C=C/c1ccccc1O` [(E)-2-(prop-1-enyl)phenol] was run?
Its value is 1.00.

What about the “MBC of the component acting alone (QA or QB)” value ([3]; E. coli 10536) of the same molecule?
The value was 0.8 weight %.

What about the “No. of replicates showing growth (out of 4)” value [1, 4] of the same molecule?
The value was 4.

What about the “Δ OD 450 nm = OD450” value [1, 4] of the same molecule?
The value was −0.60.

And the “Δ OD 590 nm OD590” value [1, 4]?
The value was 0.59.

What about the “No. of replicates showing growth (out of 4)” value [1, 5] of the same molecule?
The value was 4.

And the “Δ OD 450 nm = OD450” value [1, 5]?
Its value is −0.53.

And the “Δ OD 590 nm OD590” value [1, 5]?
Its value is 0.63.

And the “No. of replicates showing growth (out of 4)” value ([1]; single active alone at […] w/v)?
The value was 4.

What about the “Δ OD 450 nm = OD450” value ([1]; single active alone at […] w/v) of the same molecule?
The value was −0.57.

What about the “Δ OD 590 nm OD590” value ([1]; single active alone at […] w/v) of the same molecule?
The value was 0.58.

For `C=C(C)[C@@H]1CC=C(CO)CC1` [(S)-(−) perillyl alcohol], which “No. of replicates showing growth (out of 4)” value [1, 5] is on record?
Its value is 4.

What about the “Δ OD 450 nm = OD450” value [1, 5] of the same molecule?
Its value is −1.44.

And the “Δ OD 590 nm OD590” value [1, 5]?
Its value is 0.36.

What about the “No. of replicates showing growth (out of 4)” value [1, 7] of the same molecule?
Its value is 4.

What about the “Δ OD 450 nm = OD450” value [1, 7] of the same molecule?
The value was −1.15.

What about the “Δ OD 590 nm OD590” value [1, 7] of the same molecule?
Its value is 0.56.

And the “No. of replicates showing growth (out of 4)” value ([1]; single active alone at […] w/v)?
Its value is 1.

And the “Δ OD 450 nm = OD450” value ([1]; single active alone at […] w/v)?
The value was −0.18.

What about the “Δ OD 590 nm OD590” value ([1]; single active alone at […] w/v) of the same molecule?
Its value is 0.19.

`CC1CCC(CO)C(C)C1` (stereo not drawn) [dihydrofloralol, 2,4-Dimethylcyclohexylmethanol] was tested. Which NMBS ([2]; 0.3% w/v, E. coli) did it give?
Its NMBS is 6.18 log CFU/ml.

And the NMBS ([2]; 0.4% w/v, E. coli)?
The NMBS was 3.97 log CFU/ml.

What about the NMBS ([2]; 0.5% w/v, E. coli) of the same molecule?
Its NMBS is 0.00 log CFU/ml.

What about the MBC [1] of the same molecule?
The MBC was 4000 µg/mL.

What about the “No. of replicates showing growth (out of 4)” value [1, 5] of the same molecule?
Its value is 4.

And the “Δ OD 450 nm = OD450” value [1, 5]?
Its value is −1.39.

And the “Δ OD 590 nm OD590” value [1, 5]?
Its value is 0.41.
